Experimental data taken from patent US10294202B2, “Pyrrolidinones as herbicides” (FMC Corporation, priority 2013, dated 2019).
Like-named read-outs stand apart in the source and are kept apart here.

What was measured:
barnyardgrass [1] = assay: Test A pre-/postemergence herbicide test; assay type: in vivo, Echinochloa crus-galli; conditions: for Barnyardgrass plant response rating: Preemergence, visual rating on 0 to 100 scale (0 no effect, 100 complete control)
Procedure, shortened: (§1)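 Seeds sown in loam soil/sand blend received a preemergence directed soil spray of test chemical in non-phytotoxic solvent with surfactant; postemergence plants (2–10 cm, one- to two-leaf stage) were sprayed with the same formulation. After about 10 days in greenhouse, injury was rated visually versus untreated controls, 0 (no effect) to 100 (complete control).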

kochia = assay: Test A pre-/postemergence herbicide test; assay type: in vivo, Kochia scoparia; conditions: for Plant response rating, Kochia: 0 to 100 scale
Procedure, shortened: as §1

corn = assay: Test A pre-/postemergence herbicide test; assay type: in vivo, Zea mays; conditions: for Corn plant response rating: Preemergence, visual rating on 0 to 100 scale (0 no effect, 100 complete control)
Procedure, shortened: as §1

blackgrass = assay: Test A postemergence herbicide test; assay type: in vivo, Alopecurus myosuroides
Procedure, shortened: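 Young potted plants in a loam–sand mix, one- to two-leaf stage and 2–10 cm tall, receive the test chemical postemergence and stay in a greenhouse for approximately 10 days. Injury is then judged by eye against untreated plants, scored 0 (none) to 100 (complete control).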

barnyardgrass [2] = assay: Test B flooded paddy test; assay type: in vivo, Echinochloa crus-galli; conditions: Flood, scale of 0 to 100 where 0 is no effect and 100 is complete control
Procedure, shortened: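 Treatment was made at the 2-leaf stage by dosing the standing floodwater, kept 3 cm above soil level for the whole test. Greenhouse exposure lasted 13 to 15 days. Response is a visual percent rating relative to controls, where a dash indicates no test result.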

galium = assay: Test C pre-/postemergence herbicide test; assay type: in vivo, Galium aparine
Procedure, shortened: (§2)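 Visual rating, 0 (no effect) to 100 (complete control), versus untreated controls after 13 to 15 days in the greenhouse. Pre: seeds in loam/sand, sprayed at planting. Post: 1- to 4-leaf plants (2 to 18 cm) in peat-based mix. Compounds in non-phytotoxic solvent plus surfactant.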

lambsquarters = assay: Test C pre-/postemergence herbicide test; assay type: in vivo, Chenopodium album; conditions: for Lambsquarters plant response rating: scale 0 to 100, 0 is no effect and 100 is complete control
Procedure, shortened: as §2

[3] = Postemergence, 125 g ai/ha, 0 to 100 scale, 0 no effect, 100 complete control
[4] = Postemergence, 500 g ai/ha, 0 to 100 scale (0 no effect, 100 complete control)
[5] = preemergence, 500 g ai/ha, 0 to 100 scale (0 no effect, 100 complete control)
[6] = Preemergence, 31 g ai/ha, scale 0 to 100, 0 is no effect and 100 is complete control
[7] = Preemergence, 62 g ai/ha, scale 0 to 100
[8] = Preemergence, 125 g ai/ha, scale 0 to 100 (0 no effect, 100 complete control)
[9] = Postemergence, 125 g ai/ha, scale 0 to 100 (0 no effect, 100 complete control)
[10] = Postemergence, 250 g ai/ha, scale 0 to 100 (0 no effect, 100 complete control)
[11] = preemergence, 500 g ai/ha, 0 to 100 scale
[12] = Postemergence, 31 g ai/ha, scale 0 (no effect) to 100 (complete control)
[13] = Postemergence, 62 g ai/ha, scale 0 to 100 (0 no effect, 100 complete control)
[14] = Postemergence, 1000 g ai/ha, 0 to 100 scale (0 no effect, 100 complete control)
[15] = Preemergence, 31 g ai/ha, scale 0 to 100 (0 no effect, 100 complete control)
[16] = Preemergence, 16 g ai/ha, scale 0 to 100

Compound | Plant response rating, Barnyardgrass (barnyardgrass [1]; [3]) | Plant response rating, Barnyardgrass (barnyardgrass [1]; [4]) | Plant response rating, Barnyardgrass (barnyardgrass [1]; [5]) | Plant response rating, Corn (corn; [3]) | Plant response rating, Corn (corn; [4]) | Plant response rating, Galium (galium; [7]) | Plant response rating, Galium (galium; [8]) | Plant response rating (scale of 0 to 100), Galium (galium; Preemergence, 250 g ai/ha) | Plant response rating, Lambsquarters (lambsquarters; [9]) | Plant response rating, Lambsquarters (lambsquarters; [10]) | Lambsquarters plant response rating (lambsquarters; Preemergence, 31 g ai/ha) | Plant response rating, Lambsquarters (lambsquarters; [7]) | Plant response rating, Lambsquarters (lambsquarters; [8]) | Plant response rating (scale of 0 to 100), Lambsquarters (lambsquarters; Preemergence, 250 g ai/ha) | Barnyardgrass plant response rating (barnyardgrass [1]; 125 g ai/ha) | Corn plant response rating (corn; 125 g ai/ha) | Plant response rating, Corn (corn; [11]) | Plant response rating, Barnyardgrass (barnyardgrass [2]; 250 g ai/ha) | Plant response rating, Lambsquarters (lambsquarters; [12]) | Plant response rating, Lambsquarters (lambsquarters; [13]) | further results
O=C1NCC(c2ccc(F)cc2)C1C(=O)Nc1ccc(F)c(F)c1F (racemic) [Compound 120] | 80 | 90 | 90 | 20 | 80 | 95 | 50 | 90 | 60 | 70 | 35 | 70 | 85 | 90 |  |  |  |  |  |  | Plant response rating, Barnyardgrass (barnyardgrass [1]; 125 g ai/ha, visual rating, 0 to 100 scale, 0 no effect, 100 complete control, approximately 10 days, preemergence): 90; Plant response rating, Kochia (kochia; 125 g ai/ha, visual rating, 0 no effect, 100 complete control, approximately 10 days, preemergence): 60; Plant response rating, Kochia (kochia; Postemergence, 125 g ai/ha, 0 no effect, 100 complete control): 60; Kochia plant response rating (0 to 100 scale, 0 is no effect, 100 is complete control) (kochia; Postemergence, 500 g ai/ha): 70; Plant response rating, Kochia (kochia; preemergence, 500 g ai/ha): 80; Plant response rating, Blackgrass (blackgrass; 125 g ai/ha, 0 to 100 scale, 0 no effect, 100 complete control): 40; Plant response rating, Blackgrass (blackgrass; 500 g ai/ha, 0 to 100 scale (0 no effect, 100 complete control)): 50; Plant response rating, Barnyardgrass (barnyardgrass [2]; 500 g ai/ha): 80; Galium plant response rating (galium; [6]): 5; Plant response rating, Lambsquarters (lambsquarters; Postemergence, 31 g ai/ha, scale 0 to 100 (0 no effect, 100 complete control)): 55; Plant response rating, Lambsquarters (lambsquarters; Postemergence, 62 g ai/ha, scale 0 (no effect) to 100 (complete control)): 55
O=C1NCC(c2cccc(OC(F)(F)F)c2)C1C(=O)Nc1ccccc1F (stereo not drawn) [Compound 69] | 70 | 80 | 90 | 20 | 90 | 0 | 5 | 75 |  |  | 35 | 35 | 65 | 85 | 80 | 0 | 0 | 40 |  |  | Galium plant response rating (galium; [6]): 0
O=C1NCC(c2ccc(C(F)(F)F)cc2)C1C(=O)Nc1ccccc1F (stereo not drawn) [Compound 79, N-(2-fluorophenyl)-2-oxo-4-[4-(trifluoromethyl)phenyl]-3-pyrrolidinecarboxamide] |  |  |  |  |  | 5 | 85 | 90 | 85 | 85 | 90 | 90 | 90 | 90 | 80 | 0 |  | 0 | 25 | 50 | pest or weed control at 125 g/ha (barnyardgrass [1]; Echinochloa crus-galli, post-emergence, 240 h, Postemergence, 125 g ai/ha, 0 to 100 scale, 0 no effect, 100 complete control, read-out: Plant response rating, Barnyardgrass): 80%; pest or weed control at 500 g/ha (barnyardgrass [1]; Echinochloa crus-galli, post-emergence, 240 h, Postemergence, 500 g ai/ha, 0 to 100 scale (0 no effect, 100 complete control), read-out: Plant response rating, Barnyardgrass): 90%; pest or weed control at 500 g/ha (barnyardgrass [1]; Echinochloa crus-galli, pre-emergence, 240 h, preemergence, 500 g ai/ha, 0 to 100 scale (0 no effect, 100 complete control), read-out: Plant response rating, Barnyardgrass): 90%; Corn plant response rating (crop injury, 0 = no effect, 100 = complete kill) at 125 g/ha (corn; Zea mays, post-emergence, 240 h, Postemergence, 125 g ai/ha, 0 to 100 scale, 0 no effect, 100 complete control): 20%; Corn plant response rating (crop injury, 0 = no effect, 100 = complete kill) at 500 g/ha (corn; Zea mays, post-emergence, 240 h, Postemergence, 500 g ai/ha, 0 to 100 scale (0 no effect, 100 complete control)): 70%; Corn plant response rating (crop injury, 0 = no effect, 100 = complete kill) at 500 g/ha (corn; Zea mays, pre-emergence, 240 h, preemergence, 500 g ai/ha, 0 to 100 scale): 0%; Plant response rating, Galium (galium; [12]): 30; Plant response rating, Galium (galium; [13]): 60; Plant response rating, Galium (galium; [9]): 60; Galium plant response rating (galium; [6]): 0
O=C1NCC(c2ccc(F)c(C(F)(F)F)c2)C1C(=O)Nc1cccc(F)c1F (racemic) [Compound 77] | 70 | 80 | 90 | 50 | 70 | 5 | 80 | 90 |  |  | 75 | 85 | 85 | 98 | 80 | 0 | 30 | 20 |  |  | 
Cc1c(F)cccc1NC(=O)C1C(=O)NCC1c1ccc(F)c(F)c1 (racemic) [Compound 106] |  |  |  |  |  |  |  |  | 0 | 0 |  |  |  |  |  |  |  |  | 0 | 25 | Plant response rating, Barnyardgrass (barnyardgrass [1]; [14]): 90; Plant response rating, Barnyardgrass (barnyardgrass [1]; preemergence, 1000 g ai/ha, 0 to 100 scale (0 no effect, 100 complete control)): 90; Plant response rating, Corn (corn; [14]): 50; Plant response rating, Corn (corn; preemergence, 1000 g ai/ha, 0 to 100 scale): 30; Plant response rating, Barnyardgrass (barnyardgrass [2]; 1000 g ai/ha): 60; Plant response rating, Galium (galium; [12]): 0; Plant response rating, Galium (galium; [13]): 0; Plant response rating, Galium (galium; [9]): 50; Plant response rating, Galium (galium; [10]): 35
O=C1NCC(c2ccc(Cl)c(F)c2)C1C(=O)Nc1cccc(F)c1F (stereo not drawn) [Compound 52] | 80 | 80 | 90 | 0 | 30 | 0 | 90 |  | 40 | 40 |  | 40 | 70 |  | 80 | 0 | 0 | 55 |  | 10 | Galium plant response rating (galium; [15]): 0; Plant response rating, Galium (galium; Preemergence, 250 g ai/ha, scale 0 to 100 (0 no effect, 100 complete control)): 90
O=C1NCC(c2cc(F)c(F)c(F)c2)C1C(=O)Nc1cccc(F)c1F (stereo not drawn) [Compound 48] | 80 | 90 | 90 | 0 | 50 | 30 | 60 |  | 10 |  |  | 65 | 65 |  | 80 | 0 | 20 | 40 | 10 |  | Plant response rating, Galium (galium; [16]): 0; Galium plant response rating (galium; [15]): 0; Plant response rating, Lambsquarters (lambsquarters; [16]): 0
O=C1NCC(c2ccc(F)c(Cl)c2)C1C(=O)Nc1ccccc1F (stereo not drawn) [Compound 60] | 80 | 90 | 90 | 0 | 60 | 0 | 5 |  | 20 |  |  |  | 10 |  | 80 | 0 | 0 | 30 | 5 | 20 | Galium plant response rating (galium; [15]): 0
